# From patent US11964953B2, “Substituted aminothiazoles as DGKzeta inhibitors for immune activation” (Bayer Aktiengesellschaft, priority 2020, dated 2024)
# Biological target: human DGKζ (Homo sapiens (Human), UniProt Q13574)
# Test: Human DGKζ kinase activity inhibition assay (ADP-Glo)
# Format: biochemical
# Conditions: in vitro human DGKζ kinase activity inhibition assay; read-out: IC50
# Outline: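 Enzyme was C-terminally FLAG-tagged full-length recombinant human DGKζ from baculovirus-infected insect cells. Substrate preparation used octyl-β-D-glucopyranoside in 50 mM MOPS pH 7.4 with sonication; ADP generated was quantified by ADP-Glo luminescence as activity measure.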
# Chain of human DGKζ (Q13574 other isoform, or with tags, fused parts or gaps): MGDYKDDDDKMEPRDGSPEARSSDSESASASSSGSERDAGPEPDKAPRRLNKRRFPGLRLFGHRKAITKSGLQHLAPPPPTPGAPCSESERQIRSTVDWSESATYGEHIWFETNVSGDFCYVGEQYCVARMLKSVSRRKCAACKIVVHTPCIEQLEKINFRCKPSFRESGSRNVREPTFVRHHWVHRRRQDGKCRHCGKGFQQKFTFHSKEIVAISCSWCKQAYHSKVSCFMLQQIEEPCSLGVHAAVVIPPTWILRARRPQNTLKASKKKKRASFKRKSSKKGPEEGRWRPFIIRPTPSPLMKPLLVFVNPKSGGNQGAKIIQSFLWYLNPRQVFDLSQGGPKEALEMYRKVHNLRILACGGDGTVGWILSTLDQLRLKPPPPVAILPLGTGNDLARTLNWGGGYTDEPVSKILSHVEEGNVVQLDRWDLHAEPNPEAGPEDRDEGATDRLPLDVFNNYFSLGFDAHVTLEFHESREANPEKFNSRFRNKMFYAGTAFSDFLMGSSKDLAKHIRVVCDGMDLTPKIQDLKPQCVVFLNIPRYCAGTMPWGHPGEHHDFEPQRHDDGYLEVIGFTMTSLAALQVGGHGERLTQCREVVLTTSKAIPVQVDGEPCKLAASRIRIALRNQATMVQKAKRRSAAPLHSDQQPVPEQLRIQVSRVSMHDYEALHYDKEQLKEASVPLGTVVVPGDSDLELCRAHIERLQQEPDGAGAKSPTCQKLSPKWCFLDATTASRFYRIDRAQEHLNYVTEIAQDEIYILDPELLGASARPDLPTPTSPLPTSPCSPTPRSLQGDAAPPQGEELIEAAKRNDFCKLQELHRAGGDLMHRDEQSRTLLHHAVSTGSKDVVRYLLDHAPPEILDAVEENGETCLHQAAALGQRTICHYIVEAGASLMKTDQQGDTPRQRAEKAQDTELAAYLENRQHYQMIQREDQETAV
row,IC50 [nM],SMILES
1,252,"CC(C(N)=O)N(c1ccc(OC(F)(F)F)c(Cl)c1)c1nc(N)c(C(=O)c2ccncc2)s1 (racemic) [Example 225, rac-2-[N-[4-amino-5-(pyridine-4-carbonyl)thiazol-2-yl]-3-chloro-4-(trifluoromethoxy)anilino]propanamide]"
2,87,"CC(C(N)=O)N(c1ccc(OC(F)(F)F)c(Cl)c1)c1nc(N)c(C(=O)c2ccc(OC(F)F)nc2)s1 (racemic) [Example 226, rac-2-[N-[4-amino-5-[6-(difluoromethoxy)pyridine-3-carbonyl]thiazol-2-yl]-3-chloro-4-(trifluoromethoxy)anilino]propanamide]"
3,393,"COc1ccc(N(c2nc(N)c(C(=O)c3ccccc3)s2)C(C)C(N)=O)cn1 (racemic) [Example 227, rac-2-[(4-amino-5-benzoyl-thiazol-2-yl)-(6-methoxy-3-pyridyl)amino]propanamide]"
4,218,"CC(C(N)=O)N(c1ccc(OC(F)(F)F)nc1)c1nc(N)c(C(=O)c2ccccc2)s1 (racemic) [Example 228, rac-2-[(4-amino-5-benzoyl-thiazol-2-yl)-[6-(trifluoromethoxy)-3-pyridyl]amino]propanamide]"
5,193,"CC(C(N)=O)N(c1ccc(OC(F)F)nc1)c1nc(N)c(C(=O)c2ccccc2)s1 (racemic) [Example 229, rac-2-[(4-amino-5-benzoyl-thiazol-2-yl)-[6-(difluoromethoxy)-3-pyridyl]amino]propanamide]"
6,199,"CC(C(N)=O)N(c1ccc(C(F)(F)F)nc1)c1nc(N)c(C(=O)c2ccccc2)s1 (racemic) [Example 230, rac-2-[(4-amino-5-benzoyl-thiazol-2-yl)-[6-(trifluoromethyl)-3-pyridyl]amino]propanamide]"
7,662,"CC(C(N)=O)N(c1ccc(C(F)F)nc1)c1nc(N)c(C(=O)c2ccccc2)s1 (racemic) [Example 231, rac-2-[(4-amino-5-benzoyl-thiazol-2-yl)-[6-(difluoromethyl)-3-pyridyl]amino]propanamide]"
8,112,"CC(C(N)=O)N(c1ccc(Cl)nc1)c1nc(N)c(C(=O)c2ccccc2)s1 (racemic) [Example 232, rac-2-[(4-amino-5-benzoyl-thiazol-2-yl)-(6-chloro-3-pyridyl)amino]propanamide]"
9,267,"CC(C(N)=O)N(c1ccc(F)nc1)c1nc(N)c(C(=O)c2ccccc2)s1 (racemic) [Example 233, rac-2-[(4-amino-5-benzoyl-thiazol-2-yl)-(6-fluoro-3-pyridyl)amino]propanamide]"
10,1640,"Cc1ccc(N(c2nc(N)c(C(=O)c3ccccc3)s2)C(C)C(N)=O)cn1 (racemic) [Example 234, rac-2-[(4-amino-5-benzoyl-thiazol-2-yl)-(6-methyl-3-pyridyl)amino]propanamide]"
11,542,"CC(C(N)=O)N(c1ccc(F)c(OC(F)(F)F)c1)c1nc(N)c(C(=O)c2ccccc2)s1 (racemic) [Example 235, rac-2-[N-(4-amino-5-benzoyl-thiazol-2-yl)-4-fluoro-3-(trifluoromethoxy)anilino]propanamide]"
12,730,"CC(C(N)=O)N(c1ccc(Cl)c(OC(F)(F)F)c1)c1nc(N)c(C(=O)c2ccccc2)s1 (racemic) [Example 236, rac-2-[N-(4-amino-5-benzoyl-thiazol-2-yl)-4-chloro-3-(trifluoromethoxy)anilino]propanamide]"
13,749,"CC(C(N)=O)N(c1ccc(F)c(OC(F)F)c1)c1nc(N)c(C(=O)c2ccccc2)s1 (racemic) [Example 237, rac-2-[N-(4-amino-5-benzoyl-thiazol-2-yl)-3-(difluoromethoxy)-4-fluoro-anilino]propanamide]"
14,667,"CC(C(N)=O)N(c1ccc(Cl)c(OC(F)F)c1)c1nc(N)c(C(=O)c2ccccc2)s1 (racemic) [Example 238, rac-2-[N-(4-amino-5-benzoyl-thiazol-2-yl)-4-chloro-3-(difluoromethoxy)anilino]propanamide]"
15,236,"CC(C(N)=O)N(c1nc(N)c(C(=O)c2ccccc2)s1)c1ccc(OC(F)(F)F)cc1F (racemic) [Example 239, rac-2-[N-(4-amino-5-benzoyl-thiazol-2-yl)-2-fluoro-4-(trifluoromethoxy)anilino]propanamide]"
16,1330,"CC(C(N)=O)N(c1nc(N)c(C(=O)c2ccccc2)s1)c1ccc(OC(F)(F)F)cc1Cl (racemic) [Example 240, rac-2-[N-(4-amino-5-benzoyl-thiazol-2-yl)-2-chloro-4-(trifluoromethoxy)anilino]propanamide]"
17,382,"CC(C(N)=O)N(c1nc(N)c(C(=O)c2ccccc2)s1)c1ccc(OC(F)F)cc1F (racemic) [Example 241, rac-2-[N-(4-amino-5-benzoyl-thiazol-2-yl)-4-(difluoromethoxy)-2-fluoro-anilino]propanamide]"
18,2030,"CC(C(N)=O)N(c1nc(N)c(C(=O)c2ccccc2)s1)c1ccc(OC(F)F)cc1Cl (racemic) [Example 242, rac-2-[N-(4-amino-5-benzoyl-thiazol-2-yl)-2-chloro-4-(difluoromethoxy)anilino]propanamide]"
19,51,"COc1ccc(C(=O)c2sc(N(c3ccc(C(F)F)cc3)C(C)C(N)=O)nc2N)cc1 (racemic) [Example 243, rac-2-[N-[4-amino-5-(4-methoxybenzoyl)thiazol-2-yl]-4-(difluoromethyl)anilino]propanamide]"
20,30,"CC(C(N)=O)N(c1ccc(C(F)F)cc1)c1nc(N)c(C(=O)c2ccc(Cl)cc2)s1 (racemic) [Example 244, rac-2-[N-[4-amino-5-(4-chlorobenzoyl)thiazol-2-yl]-4-(difiuoromethyl)anilino]propanamide]"
21,22,"CC(C(N)=O)N(c1ccc(C(F)F)cc1)c1nc(N)c(C(=O)c2ccc(OC(F)F)cc2)s1 (racemic) [Example 245, rac-2-[N-[4-amino-5-[4-(difluoromethoxy)benzoyl]thiazol-2-yl]-4-(difluoromethyl)anilino]propanamide]"
22,662,"CC(C(N)=O)N(c1ccc(C(F)F)cc1)c1nc(N)c(C(=O)c2ccncc2)s1 (racemic) [Example 246, rac-2-[N-[4-amino-5-(pyridine-4-carbonyl)thiazol-2-yl]-4-(difluoromethyl)anilino]propanamide]"
23,40,"CC(C(N)=O)N(c1ccc(C(F)F)cc1)c1nc(N)c(C(=O)c2ccc(OC(F)F)nc2)s1 (racemic) [Example 247, rac-2-[N-[4-amino-5-[6-(difluoromethoxy)pyridine-3-carbonyl]thiazol-2-yl]-4-(difluoromethyl)anilino]propanamide]"
24,136,"COc1ccc(C(=O)c2sc(N(c3ccc(OC(F)(F)F)nc3)C(C)C(N)=O)nc2N)cc1 (racemic) [Example 248, rac-2-[[4-amino-5-(4-methoxybenzoyl)thiazol-2-yl]-[6-(trifluoromethoxy)-3-pyridyl]amino]propanamide]"
25,120,"CC(C(N)=O)N(c1ccc(OC(F)(F)F)nc1)c1nc(N)c(C(=O)c2ccc(Cl)cc2)s1 (racemic) [Example 249, rac-2-[[4-amino-5-(4-chlorobenzoyl)thiazol-2-yl]-[6-(trifluoromethoxy)-3-pyridyl]amino]propanamide]"
